# Data from US11993563B2, “Solid compositions of cocrystals of cannabinoids” (priority 2018, dated 2024).
# How the values were obtained:
# [1] = open vial, accelerated stability conditions 40° C. and 75±5% relative humidity
# Experimental: (§1) X-ray power Diffraction (XRPD) measurements were performed at ambient conditions on a PANalytical X'Pert PRO θ-θ diffractometer of 240 mm of radius in reflection geometry, equipped with Cu Kα radiation and a PIXcel detector, operated at 45 kV and 40 mA. Each sample was mounted on a zero-background silicon holder and allowed to spin at 0.25 rev/s during the data collection.
# The aim of the study is to evaluate the stability of cocrystal Form I of the present invention.
# Cocrystal Form I (55 mg) is stored in an open vial and exposed to accelerated stability conditions (40° C. and 75±5% relative humidity) according to ICH guidelines (Guidance for Industry Q1A(R2) Stability Testing of New Drug Substances and Products—available on the website http://www.ich.org/products/guidelines/quality/quality-single/article/stability-testing-of-new-drug-substances-and-products.html on Aug. 4, 2017).
# [2] = in tablet
# Experimental: as §1
# [3] = Stability of the cocrystal on heating (DSC experiments); format: physicochemical
# Experimental: The cocrystal Form VII of the present invention may also be further characterized by DSC (differential scanning calorimetry) analysis as shown in FIG. 15. […] The cocrystal Form VII of the present invention may also be further characterized by having a melting range of about 109-120° C.
# The cocrystal Form XVIII of the present invention may also be further characterized by DSC (differential scanning calorimetry) analysis as shown in FIG. 35.
# The cocrystal Form XIX of the present invention may also be further characterized by DSC (differential scanning calorimetry) analysis as shown in FIG. 37.
# DSC analyses were recorded with a Mettler Toledo DSC2. For cocrystals Forms […], and XI-XIX, the sample was weighed into a 40 μL aluminium crucible with a pinhole lid and was heated from 25 to 300° C. at a rate of 10° C./min, under nitrogen (50 mL/min). For cocrystals Form VII and VIII, the sample was weighed into a 40 μL aluminium crucible with a pinhole lid and was heated from 25 to 150° C. at a rate of 10° C./min, under nitrogen (50 mL/min).
SMILES,stability according to XRPD [1],integrity of the cocrystal after its formulation (XRPD of the tablet) [2],remained stable after heating up to [3]
"C=C(C)[C@@H]1CCC(C)=C[C@H]1c1c(O)cc(CCCCC)cc1O [Form I, cocrystal of CBD and L-proline]",remained stable for at least three weeks,maintained its integrity,
"CCCCCc1cc(O)c2c(c1)OC(C)(C)[C@@H]1CCC(C)=C[C@@H]21 [Form VII, cocrystal of (−)-(6aR,10aR)-6,6,9-trimethyl-3-pentyl-6a,7,8,10a-tetrahydro-6H-benzo[c]chromen-I-ol and L-proline]",,maintained its integrity,up to 75 °C
"C=C(C)[C@@H]1CCC(C)=C[C@H]1c1c(O)cc(CCC)cc1O [Form XIX, cocrystal wherein the cannabinoid is CBDV and L-carnitine]",,,up to 110 °C
"C=C(C)[C@@H]1CCC(C)=C[C@H]1c1c(O)cc(CCC)cc1O [Form XVIII, cocrystal wherein the cannabinoid is CBDV and L-proline]",,,up to 90 °C
